Reference: paper PMC11017246, “Discovery of GLPG2737, a Potent Type 2 Corrector of CFTR for the Treatment of Cystic Fibrosis in Combination with a Potentiator and a Type 1 Co-corrector” (Journal of Medicinal Chemistry, 2024)

Experiments:
[1] = tested on: patients with CF homozygous for ΔF508; set-up: method as in PMID 31594690; details: patients receiving ivacaftor/lumacaftor; cited from earlier work
[2] = biological target: hERG (Homo sapiens, UniProt Q12809); test: hERG manual patch clamp test; type: cell-based
Chain of hERG (Q12809 whole entry): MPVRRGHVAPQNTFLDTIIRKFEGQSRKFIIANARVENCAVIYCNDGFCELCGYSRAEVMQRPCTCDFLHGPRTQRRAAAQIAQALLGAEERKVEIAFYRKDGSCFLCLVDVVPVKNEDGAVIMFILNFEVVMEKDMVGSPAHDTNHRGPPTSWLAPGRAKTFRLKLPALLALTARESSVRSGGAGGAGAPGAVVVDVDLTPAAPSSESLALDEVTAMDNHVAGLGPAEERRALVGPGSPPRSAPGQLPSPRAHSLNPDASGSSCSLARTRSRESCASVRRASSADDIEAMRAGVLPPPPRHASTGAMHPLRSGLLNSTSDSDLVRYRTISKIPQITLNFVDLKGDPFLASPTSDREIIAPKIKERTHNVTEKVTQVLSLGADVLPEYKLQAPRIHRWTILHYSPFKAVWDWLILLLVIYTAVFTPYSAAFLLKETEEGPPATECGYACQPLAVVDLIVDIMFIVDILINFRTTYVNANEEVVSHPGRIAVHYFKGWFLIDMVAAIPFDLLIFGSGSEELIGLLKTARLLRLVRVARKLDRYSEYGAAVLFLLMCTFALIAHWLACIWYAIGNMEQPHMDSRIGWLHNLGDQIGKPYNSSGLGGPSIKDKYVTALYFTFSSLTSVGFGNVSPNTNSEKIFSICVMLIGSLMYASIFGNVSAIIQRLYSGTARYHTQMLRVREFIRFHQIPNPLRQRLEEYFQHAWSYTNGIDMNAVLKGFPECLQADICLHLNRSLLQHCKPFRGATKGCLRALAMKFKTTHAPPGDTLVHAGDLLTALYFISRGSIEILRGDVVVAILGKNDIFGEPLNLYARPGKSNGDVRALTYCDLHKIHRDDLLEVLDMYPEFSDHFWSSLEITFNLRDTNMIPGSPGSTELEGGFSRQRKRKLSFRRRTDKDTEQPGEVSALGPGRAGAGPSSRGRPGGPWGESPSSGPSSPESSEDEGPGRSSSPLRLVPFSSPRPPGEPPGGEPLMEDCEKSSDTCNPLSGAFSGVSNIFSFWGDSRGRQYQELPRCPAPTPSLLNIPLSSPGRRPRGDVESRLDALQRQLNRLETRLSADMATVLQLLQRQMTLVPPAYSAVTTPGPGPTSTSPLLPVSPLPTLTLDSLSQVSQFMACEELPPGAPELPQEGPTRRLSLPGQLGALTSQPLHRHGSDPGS

[3] = tested on: MDCKII-MDR1 cells; test: MDCK-MDR1 permeability assay; type: in vitro ADME, canine; details: A to B, n = 2
Procedure: (§1) MDCKII-MDR1 cells were seeded on Millicell-24 cell culture insert plate assemblies at a final concentration of 0.12 × 10^6 cells/well. Cells were cultured in a CO2 incubator for 3–4 days prior to experiment start with media replacement 24 h post seeding. On the day of the experiment, cells were preincubated for 45 min with Dulbecco’s Phosphate Buffer saline (D-PBS, pH7.4), containing 1% of DMSO. Compounds were prepared in D-PBS, pH 7.4 and added to either the apical or basolateral chambers of the Millicell cell culture insert plates assembly at a final concentration of 10 μM with a final DMSO concentration of 1%. Lucifer Yellow was added to all donor buffer solutions in order to assess integrity of the cell monolayers by monitoring Lucifer Yellow permeation. […] After brief mixing and centrifugation, the supernatant was analyzed by LC-MS/MS. The apparent permeability coefficient (Papp) was calculated according to the following equation: Papp = (dQ/dT)(1/C0)(1/A), where dQ/dT = permeability rate; C0 = initial concentration in donor compartment; A = surface area of the cell monolayer (0.7 cm^2). […] The efflux ratio is calculated as Papp from B to A divided by Papp from A to B. Passive permeability (×10^–6 cm/s) is calculated by the formula: Papp from A to B × efflux ratio + 1/2.

[4] = MDCK-MDR1 permeability assay; type: in vitro ADME, canine; details: dog, MDCK-MDR1, pH 7.4; A to B, n = 2; read-out: MDCK-MDR1 PA2B
Procedure: as §1

[5] = Liver microsomal stability, rat; type: in vitro ADME; details: rat; matrix not given; read-out: Clintr,unbound rat (converted)
Procedure: The microsomal stability assay was performed by incubation of test compound at 1 μM, 0.2% DMSO in phosphate buffer with microsomes (0.5 mg/mL) from mouse, rat, dog, or human (Xeno-Tech, Kansas City, KS, USA), and cofactors with final concentrations of 0.6 U/mL glucose-6- phosphate dehydrogenase, 3.3 mM MgCl2, 3.3 mM glucose-6-phosphate, and 1.3 mM nicotinamide adenine dinucleotide phosphate (NADP)+. Before addition of the microsomes (time zero) and after 30 min of incubation at 37 °C with shaking, the reaction was stopped, and proteins were precipitated with an excess of acetonitrile containing an internal standard. The samples were mixed, centrifuged, and filtered, and the supernatant was analyzed by liquid chromatography–mass spectrometry/mass spectrometry (LC–MS/MS). The instrument responses (peak areas/IS peak areas) were referenced to the zero-time point samples (considered as 100%) to determine the percentage of compound remaining. In vitro unbound intrinsic clearance (CLint,u) was calculated from the half-life using the following equations: [drawing 1] [drawing 2] To take into account nonspecific binding, scaled CLint values were corrected with the fraction unbound in microsomes (fu, mic). [drawing 3]
Equilibrium dialysis is a technique used to measure microsomal binding. Briefly, the assay was performed in a 96-well Teflon dialysis unit (Dialysis Device), where each well consists of two chambers separated by a dialysis membrane (membrane strips, MW cutoff 12–14 kDa, HTDialysis). Inactivated liver microsomes (pooled human liver microsomes, Xenotech, protein concentration of 0.5 mg/mL) spiked with a compound (1 μM final concentration, 0.5% DMSO) were added to one chamber and buffer solution (50 mM PBS Buffer) was added to the other side of the well. Each compound was analyzed in duplicate for 4 h at 37 °C. At the end of incubation, both chambers were sampled and analyzed by LC-MS/MS. The unbound microsomal fraction (fu, mic) was calculated as the concentration in buffer divided by the total concentration in the microsomal side. Positive controls included in this assay are terfenadine and verapamil.

[6] = PK mouse; type: in vivo
[7] = Hepatocyte stability, monkey; type: in vitro ADME; details: monkey hepatocytes
Procedure: The hepatocyte stability assay was performed by incubation of test compound at 1 μM, 0.03% DMSO in modified Krebs–Henseleit buffer with suspension of pooled cryopreserved hepatocytes (BioIVT, Hicksville, NY, USA) from mouse, rat, dog, or human (BioIVT, Hicksville, NY, USA) at 0.5 million viable hepatocytes/mL. Before adding the hepatocytes (time zero) and after 10, 20, 45, 90, 120, and 180 min of incubation (n = 2) at 37 °C while gently shaking, the reaction was stopped and proteins were precipitated with an excess of acetonitrile containing an internal standard. The samples were mixed, centrifuged, and filtered, and the supernatant was analyzed by liquid chromatography–mass spectrometry/mass spectrometry (LC–MS/MS). The instrument responses (peak areas/IS peak areas) were referenced to the zero-time point samples (considered as 100%) in order to determine the percentage of compound remaining.

COC1CCN(C2CCN(c3cc(C(=O)NS(=O)(=O)N(C)C)nc4c3c(C3CCC3)nn4-c3ccc(F)cc3)CC2)CC1 [Compound 52, 3-Cyclobutyl-N-(N,N-dimethylsulfamoyl)-1-(4-fluorophenyl)-4-(4-methoxy-[1,4′-bipiperidin]-1′-yl)-1H-pyrazolo[3,4-b]pyridine-6-carboxamide]
efficacy versus placebo [1]: improved efficacy versus placebo
tolerability [1]: well tolerated
hERG inhibition [2]: No significant inhibition
MDCK-MDR1 PA2B [3]: 5.45 cm × 10^–6 s^–1
Papp A→B at 1 h, 10 μM [4]: 5.45 ×10⁻⁶ cm/s
CLint scaled at 1 μM [5]: 82.3 mL/min/kg
F (%) mouse ([6]; 5 mg/kg po): 71.3%
Vd ([6]; plasma, 1 mg/kg iv, read-out: Vss mouse): 1.27 L/kg
half-life ([6]; plasma, 1 mg/kg iv, read-out: t1/2 iv mouse (converted)): 193 min
clearance ([6]; plasma, iv, 1 mg/kg, 1 mg/kg iv, read-out: Clp mouse (converted)): 4.67 mL/min/kg
Unbound clearance ([6]; plasma, iv, 1 mg/kg, 1 mg/kg iv, unbound clearance, read-out: Cl.u mouse (converted)): 1110 mL/min/kg
Hepatocyte stability: %LBF monkey [7]: 65 %LBF
Hepatocyte stability: predicted hepCl monkey ([7]; 1 µM): 1.73 L/h/kg
